In ChEMBL document CHEMBL5543065, “ATP ion channel P2X7 receptor as a regulatory molecule in the progression of colorectal cancer” (Eur J Med Chem, 2023):

Assays:
HCT-116 [1] = test: Antiproliferative activity against human HCT-116 cells assessed as reduction in cell viability incubated for 24 hrs by CCK-8 assay; format: functional, cell-based; settings: HCT-116, 24 h
HCT-116 [2] = test: Antiproliferative activity against human HCT-116 cells assessed as reduction in cell growth incubated for 72 hrs by MTT assay; format: functional, cell-based; settings: HCT-116, 72 h

IC50 (HCT-116 [1]) [nM] | IC50 (HCT-116 [2]) [nM] | SMILES
350 |  | O=C1c2ccccc2C(=O)c2c(-c3ccccc3F)noc21
 | 5520 | O=C(Nc1ccc(C(F)(F)F)cc1)Nc1nnc(Sc2cc(NCCCN3CCOCC3)ncn2)s1
